For 46 compounds, IC50 results are on record in US11286268B1, “EIF4E-inhibiting compounds and methods” (EFFECTOR THERAPEUTICS, INC., priority 2019, dated 2022).

pIC50: −log10 of the molar value. Read-outs that look alike come from different tables or passages of the source. Where only a bound is given, the exact number is not on record here.

In the test the target is recombinant eIF4E (Homo sapiens (Human), UniProt P06730). The test can be described thus: Fluorescence polarization competition assay for eIF4E binding potency. The procedure, abridged:
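IC50 values reflect 50% displacement of 20 nM EDA-m7GDP-ATTO-550 from 75 nM eIF4E, measured by fluorescence polarization after 30 min at room temperature. Buffer: 20 mM Tris pH 7.5, 100 mM NaCl, 1 mM DTT, 0.02% Tween-20; 1% DMSO.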
For orientation: Fluorescence polarisation rises when a labelled molecule tumbles more slowly, as on binding a larger partner.

Where [1] appears, read: inhibition of eIF4E/EDA-m7GDP-ATTO-550 binding, calculated IC50 values, Table 4B, read-out: IC50.
Setting [2] is: fluorescence polarization competition, 75 nM recombinant eIF4E, 20 nM EDA-m7GDP-ATTO-550, IC50 class, read-out: elF4E FP.
[3] abbreviates: inhibition of eIF4E/EDA-m7GDP-ATTO-550 binding by 50%, Table 4B calculated values, read-out: IC50.

Sequence of recombinant eIF4E (P06730 whole entry): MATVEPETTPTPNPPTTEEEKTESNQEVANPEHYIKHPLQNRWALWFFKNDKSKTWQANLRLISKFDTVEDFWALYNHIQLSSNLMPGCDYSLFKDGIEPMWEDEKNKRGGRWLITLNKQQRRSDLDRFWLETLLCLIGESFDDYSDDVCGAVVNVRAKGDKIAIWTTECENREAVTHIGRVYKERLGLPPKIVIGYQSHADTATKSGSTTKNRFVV

With `Cc1nc2cnc(N3CCN(CC(F)F)CC3)c(C#N)c2c(=O)n1CCOc1ccc(Cl)cc1-c1ccnc2c(C(=O)O)csc12` [compound 1303], the pIC50 under setting [1] was 7.44.

In the case of `Cc1nc2cc(C(F)(F)CN(C)C)cc(C#N)c2c(=O)n1CCOc1ccc(Cl)cc1-c1ccnc2c(C(=O)O)csc12` [compound 514], the pIC50 under setting [2] is greater than 7.30 and the pIC50 under setting [3] is 7.40.

Consider `Cc1nc2cnc(C3CC3)c(C#N)c2c(=O)n1CC#Cc1ccc(Cl)cc1-c1ccnc2c(C(=O)O)csc12` [compound 384], for which the pIC50 reads like this: under setting [2], greater than 7.30; under setting [3], 7.68.

In the case of `Cc1cc(-c2c(CF)cc3nc(C)n(CCOc4ccc(Cl)cc4-c4cc(C)nc5c(C(=O)O)csc45)c(=O)c3c2C#N)cc(C)n1` [compound 933], the pIC50 was 6.00 to 7.30 under setting [2] and 6.91 under setting [3].

Regarding `Cc1nc2cnc(C3=CCC(N(C)CC(F)F)CC3)c(C#N)c2c(=O)n1CC#Cc1ccc(Cl)cc1-c1ccnc2c(C(=O)O)csc12` (centres unmarked) [compound 1573], the pIC50 under setting [1] was 7.65.

For the compound `Cc1nc2c(N3CCN(CC(F)F)C4CC43)ncc(C#N)c2c(=O)n1CCOc1ccc(Cl)cc1-c1ccnc2c(C(=O)O)csc12` (centres unmarked) [compound 818], the pIC50 runs as follows: under setting [2], greater than 7.30; under setting [3], 7.88.

As to `Cc1cc(F)c(-c2c(C(F)(F)F)cc3nc(C)n(CCOc4ccc(Cl)cc4-c4cc(C)nc5c(C(=O)O)csc45)c(=O)c3c2C#N)cn1` [compound 1388], the pIC50 under setting [1] is 7.44.

Take `N#Cc1cc2c(=O)n(CCOc3ccc(Cl)cc3-c3cccc4c(C(=O)O)nccc34)cnc2cn1` [compound 118]: the pIC50 was 6.00 to 7.30 under setting [2] and 6.38 under setting [3].

Regarding `Cc1nc2cc(C(F)(F)F)c(N3CCN(CCO)CC3)c(C#N)c2c(=O)n1CC#Cc1ccc(Cl)cc1-c1ccnc2c(C(=O)O)csc12` [compound 859], the pIC50 by setting is: under setting [2], greater than 7.30; under setting [3], 8.25.

Take `CCc1ncccc1-c1c(C(F)(F)F)cc2nc(C)n(CCOc3ccc(Cl)cc3-c3cc(C)nc4c(C(=O)O)csc34)c(=O)c2c1C#N` [compound 466]: the pIC50 is greater than 7.30 under setting [2] and 8.03 under setting [3].

For `Cc1nc2c(C#N)c(C(F)(F)F)cc(C#N)c2c(=O)n1CCOc1ccc(Cl)cc1-c1ccnc2c(C(=O)O)csc12` [compound 210], the pIC50 under setting [2] is 6.00 to 7.30 and the pIC50 under setting [3] is 7.04.

In the case of `Cc1cc(-c2cc(Cl)ccc2OCCn2c(C)nc3cc(C(F)(F)F)c(-c4ccccn4)nc3c2=O)c2scc(C(=O)O)c2n1` [compound 462], the pIC50 under setting [2] is greater than 7.30 and the pIC50 under setting [3] is 7.98.

For `Cc1nc2cnc(N3CCN(C)C(COC(F)(F)F)C3)c(C#N)c2c(=O)n1CC#Cc1ccc(Cl)cc1-c1ccnc2c(C(=O)O)csc12` (centres unmarked) [compound 1460], the pIC50 under setting [1] was 8.10.

Take `Cc1ccc(-c2ncc3nc(C)n(CCOc4ccc(Cl)cc4-c4cc(C)nc5c(C(=O)O)csc45)c(=O)c3c2C#N)cc1` [compound 946]: the pIC50 by setting is: under setting [2], greater than 7.30; under setting [3], 7.56.

Turning to `Cc1cccc(-c2nc(C)c3nc(C)n(CCOc4ccc(Cl)cc4-c4cc(C)nc5c(C(=O)O)csc45)c(=O)c3c2C#N)c1` [compound 478], the pIC50 under setting [2] is greater than 7.30.

Regarding `Cc1nc2cc(C(F)(F)F)c(N3CCN(C)CC3)cc2c(=O)n1CCOc1ccc(Cl)cc1-c1ccnc2c(C(=O)NS(C)(=O)=O)csc12` [compound 1299], the pIC50 under setting [1] is 7.49.

For the compound `Cc1cnc(-c2nc3c(=O)n(CCOc4ccc(Cl)cc4-c4cc(C)nc5c(C(=O)O)csc45)c(C)nc3cc2C(F)(F)F)cn1` [compound 1018], the pIC50 is, setting by setting: under setting [2], greater than 7.30; under setting [3], 8.17.

As to `Cc1cc(-c2cc(Cl)ccc2OCCn2c(C)nc3cc(C(F)(F)F)c(N4CC5(CN(C)C5)C4)c(C#N)c3c2=O)c2sc(C)c(C(=O)O)c2n1` [compound 1420], the pIC50 under setting [1] is 8.20.

Turning to `Cc1nc2cnc(N(C)C3CCN(CC(F)(F)F)CC3)c(C#N)c2c(=O)n1CC#Cc1ccc(Cl)cc1-c1ccnc2c(C(=O)NS(=O)(=O)c3ccccc3)csc12` [compound 1548], the pIC50 under setting [1] is 7.44.

In the case of `Cc1cc(-c2cc(Cl)ccc2OCCn2c(C)nc3cc(C(F)(F)F)cc(C#N)c3c2=O)cc(CC(=O)O)n1` [compound 411], the pIC50 under setting [2] was 6.00 to 7.30 and the pIC50 under setting [3] is 6.71.

For the compound `CCc1ncc(-c2c(C(F)(F)F)cc3nc(C)n(CCOc4ccc(Cl)cc4-c4cc(C)nc5c(C(=O)O)csc45)c(=O)c3c2C#N)cc1F` [compound 1911], the pIC50 under setting [1] was 8.39.

`Cc1nc2cnc(N3CC4(C3)CN(C(C)(C)C(F)F)C4)c(C#N)c2c(=O)n1CCOc1ccc(Cl)cc1-c1ccnc2c(C(=O)O)csc12` [compound 823]: the pIC50 is, setting by setting: under setting [2], greater than 7.30; under setting [3], 7.94.

Regarding `Cc1cc(-c2cc(Cl)ccc2OCCn2c(C)nc3cc(C(F)(F)F)c(N4CCN(CCO)CC4)c(C#N)c3c2=O)c2sc(C)c(C(=O)O)c2n1` [compound 1393], the pIC50 under setting [1] was 7.88.

Turning to `Cc1cc(-c2cc(Cl)ccc2OCCn2c(C)nc3cc(F)c(CN4CCOCC4)c(C#N)c3c2=O)c2scc(C(=O)O)c2n1` [compound 367], the pIC50 is, setting by setting: under setting [2], greater than 7.30; under setting [3], 8.54.

As to `Cc1nc2cnc(N3CC4(C3)CN(C3(CF)CC3)C4)c(C#N)c2c(=O)n1CCOc1ccc(Cl)cc1-c1ccnc2c(C(=O)O)csc12` [compound 825], the pIC50 is, setting by setting: under setting [2], greater than 7.30; under setting [3], 7.84.

As to `Cc1cc(-c2cc(Cl)ccc2OCCn2c(C)nc3cnc(N4CCC(=O)C4)c(C#N)c3c2=O)c2scc(C(=O)O)c2n1` [compound 884], the pIC50 runs as follows: under setting [2], greater than 7.30; under setting [3], 8.23.

On to `Cc1nc2cncc(C#N)c2c(=O)n1CCOc1ccc(Cl)cc1-c1ccnc(C(=O)O)c1` [compound 35], for which the pIC50 is, setting by setting: under setting [2], greater than 7.30; under setting [3], 7.35.

Turning to `Cc1nc2cnc(N(C)C3CCN(C4(C(F)F)COC4)CC3)c(C#N)c2c(=O)n1CC#Cc1ccc(Cl)cc1-c1ccnc2c(C(=O)NS(C)(=O)=O)csc12` [compound 1590], under setting [1], the pIC50 was 7.44.

Consider `Cc1cc(-c2cc(Cl)ccc2OCCn2c(C)nc3cnc(C4CC4(F)F)c(C#N)c3c2=O)c2scc(C(=O)O)c2n1` (centres unmarked) [compound 807], for which the pIC50 under setting [2] was greater than 7.30.

Consider `Cc1cc(-c2cc(Cl)ccc2OCCn2c(C)nc3c(C)nc(-c4ccccc4F)c(C#N)c3c2=O)c2scc(C(=O)O)c2n1` [compound 476], for which the pIC50 under setting [2] is greater than 7.30 and the pIC50 under setting [3] is 7.47.

Take `COc1cc(C#N)c2c(=O)n(CCOc3ccc(Cl)cc3-c3ccnc4c(C(=O)O)csc34)c(C)nc2c1` [compound 405]: the pIC50 is, setting by setting: under setting [2], greater than 7.30; under setting [3], 7.71.

In the case of `Cc1nc2cnc(N(C)C3CCN(CC(F)F)CC3)c(C#N)c2c(=O)n1C(C)C#Cc1ccc(Cl)cc1-c1ccnc2c(C(=O)O)csc12` (centres unmarked) [compound 1557], the pIC50 under setting [1] was 8.17.

With `Cc1cc(-c2cc(Cl)ccc2OCCn2c(C)nc3cc(C(F)(F)F)c(N4CCNCC4)c(C#N)c3c2=O)c2sc(C)c(C(=O)O)c2n1` [compound 879], the pIC50 under setting [2] was greater than 7.30 and the pIC50 under setting [3] was 8.14.

With `Cc1nc2cnc(N(C)C3CCN(CC(=O)C(C)C)CC3)c(C#N)c2c(=O)n1CCOc1ccc(Cl)cc1-c1ccnc2c(C(=O)O)csc12` [compound 1127], the pIC50 is greater than 7.30 under setting [2] and 7.89 under setting [3].

Take `CCc1cc(-c2c(C(F)(F)F)cc3nc(C)n(CCOc4ccc(Cl)cc4-c4cc(C)nc5c(C(=O)O)csc45)c(=O)c3c2C#N)ccn1` [compound 468]: the pIC50 was greater than 7.30 under setting [2] and 8.36 under setting [3].

Turning to `Cc1cc(-c2cc(Cl)ccc2OCCn2c(C)nc3cnc(N4[C@@H]5CC[C@H]4CN(C)C5)c(C#N)c3c2=O)c2sc(C)c(C(=O)O)c2n1` [compound 1092], the pIC50 was greater than 7.30 under setting [2] and 7.37 under setting [3].

On to `Cc1cnc(-c2nc3c(=O)n(CCOc4ccc(Cl)cc4-c4cc(C)nc5c(C(=O)O)csc45)c(C)nc3cc2C(F)(F)F)c(Cl)n1` [compound 1024], for which the pIC50 under setting [2] is greater than 7.30 and the pIC50 under setting [3] was 7.62.

`CS(=O)(=O)c1cc(C(=O)O)cc(-c2cc(Cl)ccc2OCCn2cnc3cnc(C#N)cc3c2=O)c1` [compound 112]: the pIC50 under setting [2] is less than 6.00 and the pIC50 under setting [3] is less than 5.52.

`N#Cc1cc2c(=O)n(Cc3cc4cc(Cl)cc(-c5cccc(C(=O)O)c5)c4o3)cnc2cn1` [compound 25]: the pIC50 reads like this: under setting [2], less than 6.00; under setting [3], 4.90.

For `Cc1cc(-c2cc(Cl)ccc2OCCn2c(C)nc3cc(C(F)(F)F)c(OCCN4CCNCC4)c(C#N)c3c2=O)c2sc(C)c(C(=O)O)c2n1` [compound 1392], the pIC50 under setting [1] was 7.58.

As for `Cc1nc2cnc(N(C)C3CCN(CC(C)(F)F)CC3)c(C#N)c2c(=O)n1CC#Cc1ccc(Cl)cc1-c1ccnc2c(C(=O)NS(=O)(=O)c3ccccn3)csc12` [compound 1146], the pIC50 by setting is: under setting [2], greater than 7.30; under setting [3], 7.84.

With `Cc1nc2ccc(C(F)F)c(C#N)c2c(=O)n1CCOc1ccc(Cl)cc1-c1cccc(C(=O)O)c1` [compound 62], the pIC50 by setting is: under setting [2], greater than 7.30; under setting [3], 7.60.

Turning to `Cc1cc(-c2cc(Cl)ccc2OCCn2c(C)nc3cc(C(F)(F)F)c(-c4cncc(C(F)(F)F)n4)c(C#N)c3c2=O)c2scc(C(=O)O)c2n1` [compound 1026], the pIC50 under setting [2] is greater than 7.30 and the pIC50 under setting [3] is 7.81.

For `Cc1nc2cc(C(F)(F)F)cc(Br)c2c(=O)n1CCOc1ccc(Cl)cc1-c1ccnc2c(C(=O)O)csc12` [compound 305], the pIC50 is 6.00 to 7.30 under setting [2] and 6.37 under setting [3].

Take `CCN(c1ncc2nc(C)n(CC#Cc3ccc(Cl)cc3-c3ccnc4c(C(=O)NS(=O)(=O)C5CC5)csc34)c(=O)c2c1C#N)C1CCN(C2COC2)CC1` [compound 1749]: the pIC50 under setting [1] is 7.79.

`CCc1cc(-c2cc(Cl)ccc2OCCn2c(C)nc3cc(C(F)(F)F)c(-c4ccccn4)c(C#N)c3c2=O)c2scc(C(=O)O)c2n1` [compound 747]: the pIC50 was greater than 7.30 under setting [2] and 7.72 under setting [3].
